Structures can show the parent of a compound that is named as a salt.
Key:
[1] = ζ-potential by Zetasizer in 10 mM NaCl; format: physicochemical; details: 25° C., 10 mM NaCl (pH 6.7)
Method: Liposomes' and micelles' ζ-potential was measured at 25° C. by the mobility of the particles in the applied electrical field using a Zetasizer 3000 HAS, Malvern Instruments, Malvern, UK, by diluting an aliquot of 40 μL in 20 mL of 10 mM NaCl (pH 6.7) and passing the solutions before measurement through a 0.2-μm syringe filter (Minisart, Sartorius, Germany). ζ-potential reflects the electrical potential at the plane of sheer (further away from the actual surface), which is sensed by the HCPE and C17HC.

[2] = DPH fluorescence increase upon aggregation
Method: DPH dissolved in fetrahydrofuran was added at concentration of 0.25 ml %, to a range of concentrations of lipid dispersions and the fluorescence was recorded using 360 nm excitation and 430 nm emission on Perkin Elmer LS-50B. Then the fluorescence was plotted as function of lipid concentrations, and CMC point was detected as change of the slope of the curve by intersection of two straight lines above or below the CMC region.

[3] = Assembly size by dynamic light scattering (ALV back scattering); format: physicochemical
[4] = Electrostatics from dissociation curve of bilayer-incorporated hydroxycoumarin probes (HCPE, C17HC); format: physicochemical; details: for pKa C17HC: apparent pKa of hydroxycoumarin probe C17HC incorporated in the assemblies; for pKa HCPE: apparent pKa of hydroxycoumarin probe HCPE incorporated in the assemblies; for Surface potential C17HC / Surface potential HCPE: from shift of pKa of HC, Boltzmann equation; for Surface potential C17HC / Surface pH C17HC: probe C17HC; for Surface potential HCPE / Surface pH HCPE: probe HCPE
Method: The fluorescence excitation of the fluorophore 7-hydroxycoumarin (HC) moieties at 405 nm for HCPE and 380 nm for C17HC reflects the amount of the ionized species, while the excitation at 370 nm for HCPE and 330 nm for C17HC is the pH-independent isosbestic point, reflects the total amount of probe in the liposomes and micelles. Fluorescence emission was determined at 450 nm for all the above excitations. These two ratios (405/370 for HCPE, and 380/330 for C17HC) give the degree of ionization of HC fluoropore. The titration curve of HC, which is generated by plotting fluorescence excitation intensity ratio I405/I370 for HCPE and I380/I330 for C17HC at broad range of bulk pH, enables to calculate the apparent pKa of HC in HCPE and C17HC, respectively. The pKa of HC in the liposomal bilayer and/or in the micelles is calculated by fitting the above titration curve to the modified Henderson -Hasselbach equation, as described before [Zuidam & Barenholz (1997) ibid.]. The surface potential is then determined from the shift of pKa of HC that dramatically occurs in the strongly basic environment of cationic bilayer, according to the Boltzmann equation [Zuidam & Barenholz (1997) ibid.]

[5] = base
[6] = Level of hydration by Laurdan excitation general polarization; format: physicochemical; details: 20 mM HEPES pH 7.4, 25° C.
Method: Hydration level of the different CCS-based lipid assemblies before and after the addition of plasmid DNA was determined by monitoring changes of “Laurdan excitation general polarization” according to which the higher the value obtained, the lower is the level of hydration.
6-Dodecanoyl-2-dimethylaminonaphthalene (Laurdan), purchased from Lambda (Graz, Austria), was used to follow changes in hydration level of the liposome bilayer. The naphthalene fluorophore of this probe is located at the hydrophilichydrophobic interface of the bilayer, and its 12-carbon chain is aligned parallel to the bilayer lipid acyl chains. When associated with lipids, Laurdan excitation and emission spectra depend strongly on the phase of the lipid. […] The lipid phases and level of hydration can be described by a Laurdan steady-state fluorescence parameter referred to as generalized polarization (GP) [Hirsch-Lerner D, Barenholz Y. Biochim Biophys Acta. […] Laurdan GP fluorescence spectra in lipid vesicles are dependent on the number of water molecules around the fluorescent moiety of Laurdan. Excitation GP was calculated according to the expression: GP340=(I440−I490)/(I440+I490) (1) where I440 and I490 are the intensities of fluorescence emission at wavelengths 440 and 490 nm and the excitation wavelength 340 nm. […]

[7] = Follow up (storage) assays of CCS lipid assemblies in HEPES pH 7.4 at 4° C.; format: physicochemical
Method: FIGS. 3A-3D show the results of the different follow up assays (follow up for 23 days). The follow up assay were based on TNBS test, which is a quantitative assay based on color reaction of TNBS reagent with primary amines.
The level of primary amines was determined with storage time in TNBS binding and described as % of freshly hydrated preparation. The change in Zeta potential, the change in the HCPE fluorescence 450 nm/370 mnm excitation ratio, and the change in size of the lipid assemblies (liposomes or micelles) formed was determined.
At 21 day, there were 6 time points of storage, which were assayed simultaneously for the following parameters: […]

[8] = listed as CCS Chloride (micelles)
[9] = listed as CCS Acetate (micelles)

CCCCCCCCCCCCC/C=C/[C@@H](O)[C@H](COC(=O)NCCCNCCCCNCCCN)NC(=O)CCCCCCCCCCCCCCC [CCS Chloride salt, N-palmitoyl D-erythro sphingosyl-1-carbamoyl spermine]
ζ-potential [1, 8]: 46.5
Critical Micelle Concentration (CMC) [2]: 5 µM
Assembly size, diameter (mass-weight) [3]: micelles 25 nm;
pKa C17HC [4, 8]: 5.61
pKa HCPE [4, 8]: 6.56
Surface potential C17HC [4, 8]: 195.4 mV
Surface potential HCPE [4, 8]: 242.3 mV
Surface pH C17HC [4, 8]: 10.64
Surface pH HCPE [4, 8]: 11.54

CCCCCCCCCCCCC/C=C/[C@@H](O)[C@H](COC(=O)NCCCNCCCCNCCCN)NC(=O)CCCCCCCCCCCCCCC [CCS, N-palmitoyl D-erythro sphingosyl-1-carbamoyl spermine]
Solubility in ethanol [5]: exhibited
Hydration state before addition of DNA (Laurdan GP) [6]: high hydration state
Hydration state upon addition of DNA (Laurdan GP) ([6]; formation of lipoplexes): become dehydrated
Zeta potential during storage ([7]; HEPES buffer pH 7.4, 4° C., 23 days): no substantial change
Change in time in diameter of lipid assemblies during storage ([7]; HEPES pH 7.4, 4° C.): remained relatively small
Period of chemical stability of dispersions in aqueous phase ([7]; HEPES pH 7.4, 4° C.): at least 23 days
Surface pH and electrical surface potential over storage (HCPE 405/370 excitation ratio) ([7]; HEPES pH 7.4, 4° C., entire period of storage): unchanged
Level of primary amines upon storage (TNBS binding) ([7]; HEPES pH 7.4, 4° C., follow up for 23 days): no substantial change

CCCCCCCCCCCCC/C=C/[C@@H](O)[C@H](COC(=O)NCCCNCCCCNCCCN)NC(=O)CCCCCCCCCCCCCCC [CCS non-protonated, N-palmitoyl D-erythro sphingosyl-1-carbamoyl spermine]
ζ-potential [1]: 34
pKa HCPE [4]: 7.23
Surface potential HCPE [4]: 203.06 mV
Surface pH HCPE [4]: 10.87

CCCCCCCCCCCCC/C=C/[C@@H](O)[C@H](COC(=O)NCCCNCCCCNCCCN)NC(=O)CCCCCCCCCCCCCCC [CCS Acetate salt, N-palmitoyl D-erythro sphingosyl-1-carbamoyl spermine]
ζ-potential [1, 9]: 40
Critical Micelle Concentration (CMC) [2]: 5 µM
Assembly size, diameter (mass-weight) [3]: micelles 6 nm;
pKa C17HC [4, 9]: 4.75
Surface potential C17HC [4, 9]: 245.8 mV
Surface pH C17HC [4, 9]: 11.5
